# Data as given in article PMC6944674, “Comparison of the Hepatotoxic Potential of Two Treatments for Autosomal-Dominant Polycystic Kidney DiseaseUsing Quantitative Systems Toxicology Modeling” (Pharmaceutical Research, 2020).
# Like-named read-outs stand apart in the source and are kept apart here.
# Columns and labels:
# [1] = cited from earlier work
# [2] = cited from earlier work; remark: listed apart in the source
# [3] = system: mitochondrial electron transport chain; experiment: ETC inhibition parameter from MITOsym simulation of OCR data, translated to DILIsym; details: calculated from 24 h HepG2 OCR data and measured intracellular concentrations; lower = higher risk
# Source text: The parameters calculated in this manner were then translated to DILIsym parameters using a conversion factor based on the relative activity of rotenone in the in vitro vs. in vivo environment (7).
# [4] = target: T1, MRP3 and MRP4 (basolateral transport) (Homo sapiens, UniProt O15439); experiment: Basolateral inhibition constant: lowest IC50 of the MRP3 and MRP4 vesicular assays; format: biochemical; details: membrane vesicles (vesicular transport assay), lowest IC50 of the experimentally derived MRP3 and MRP4 IC50 values
# T1 sequence (O15439 1-1325): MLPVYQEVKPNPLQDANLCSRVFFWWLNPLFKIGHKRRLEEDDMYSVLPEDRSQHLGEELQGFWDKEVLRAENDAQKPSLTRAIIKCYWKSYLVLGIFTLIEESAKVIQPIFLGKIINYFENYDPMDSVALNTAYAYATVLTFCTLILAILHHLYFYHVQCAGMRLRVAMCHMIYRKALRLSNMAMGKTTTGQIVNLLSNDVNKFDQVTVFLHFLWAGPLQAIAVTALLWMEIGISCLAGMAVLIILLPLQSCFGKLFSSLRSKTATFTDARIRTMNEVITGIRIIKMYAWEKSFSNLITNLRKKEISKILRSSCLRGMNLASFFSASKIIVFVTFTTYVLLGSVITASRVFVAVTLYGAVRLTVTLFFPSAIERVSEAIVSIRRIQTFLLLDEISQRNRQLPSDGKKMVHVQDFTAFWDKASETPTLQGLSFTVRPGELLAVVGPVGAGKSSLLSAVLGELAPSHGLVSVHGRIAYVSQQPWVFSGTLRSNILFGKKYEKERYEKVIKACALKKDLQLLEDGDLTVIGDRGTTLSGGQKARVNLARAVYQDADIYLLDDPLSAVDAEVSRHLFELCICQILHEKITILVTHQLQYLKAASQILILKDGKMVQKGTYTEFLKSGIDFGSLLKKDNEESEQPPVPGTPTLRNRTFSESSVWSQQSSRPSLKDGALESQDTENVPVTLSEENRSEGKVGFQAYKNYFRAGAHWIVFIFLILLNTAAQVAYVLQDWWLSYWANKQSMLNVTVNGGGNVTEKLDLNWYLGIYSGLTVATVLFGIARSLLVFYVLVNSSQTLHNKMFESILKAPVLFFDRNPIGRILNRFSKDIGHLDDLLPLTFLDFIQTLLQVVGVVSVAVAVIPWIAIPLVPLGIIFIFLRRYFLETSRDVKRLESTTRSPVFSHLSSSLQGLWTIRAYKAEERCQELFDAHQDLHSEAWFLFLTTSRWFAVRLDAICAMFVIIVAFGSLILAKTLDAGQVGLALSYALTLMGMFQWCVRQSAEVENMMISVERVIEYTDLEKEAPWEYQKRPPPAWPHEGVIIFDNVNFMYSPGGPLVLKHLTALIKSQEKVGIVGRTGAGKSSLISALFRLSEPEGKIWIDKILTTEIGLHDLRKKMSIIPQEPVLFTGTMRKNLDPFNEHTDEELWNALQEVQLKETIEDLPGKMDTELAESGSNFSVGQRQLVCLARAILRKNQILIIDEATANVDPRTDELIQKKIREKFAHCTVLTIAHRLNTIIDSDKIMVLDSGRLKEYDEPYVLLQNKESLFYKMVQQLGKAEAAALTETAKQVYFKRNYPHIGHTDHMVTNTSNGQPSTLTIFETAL
# Procedure: The functional impact of lixivaptan, its three metabolites and tolvaptan on the human ABC (efflux) transporters BSEP and MRP3 and MRP4 was assessed for this project using in vitro vesicular transport inhibition assays. The inhibition of the human SLC (uptake) transporter NTCP was assessed using CHO cells stably expressing human NTCP. The concentration ranges used for the five test articles was determined based on the solubility of each compound in the assay solution. All transporter inhibition assays were conducted in triplicate by Solvo Biotechnology (Szeged, Hungary). For the simulation of bile acid transporter inhibition by lixivaptan in […], parameter values were selected for BSEP canalicular transport, basolateral transport (encompassing both MRP3 and MRP4), and NTCP transport. The parameter values for each include the inhibition constant, defined as the IC50 or Ki value, and the inhibition type, defined as competitive, non-competitive, or mixed inhibition.
# [5] = End Stage Renal Disease patients, ref personal communication, proprietary data not shown
smiles,measurement,setting,value
"Cc1ccc(F)cc1C(=O)Nc1ccc(C(=O)N2Cc3cccn3Cc3ccccc32)c(Cl)c1 [Lixivaptan, lixivaptan]",time to steady-state concentration,"[1]; 100 mg BID, clinical, ref proprietary data not shown",6 days
same,recovery in single-dose mass balance study,"[1]; 100 mg single dose, after 7 days, ref clinical study 0892A1-109-US",84%
same,decrease of exposure (AUC) in renal failure patients vs subjects with normal renal function,[1]; [5],approximately 30%
same,decrease of peak concentration (Cmax) in renal failure patients vs subjects with normal renal function,[1]; [5],approximately 30%
same,Cmax,"[1]; after 7 days of 100 mg BID, ref clinical study CK-LX1403 (data not shown)",2000 nM
same,Clinical ALT >3X ULN,"[2]; 100 mg BID, 60 days, hyponatremia protocol, ref study CK-LX3401 (not shown)",On treatment similar to placebo**
same,Clinical ALT >3X ULN,"[2]; 400 mg BID, 7 days, ref clinical trial CK-LX1403",no individuals out of 67 showed elevated ALT
same,Coefficient for ETC inhibition (DILIsym parameter),[3],535 µM
same,IC50,[4],70 µM
